The text below walks through data of paper PMC12999171 (eLife, 2026).

Molecules are shown by their SMILES. pEC50: −log10 of the molar value.

In one test the target is iGABASnFR2n (Pseudomonas fluorescens, UniProt A0A1B3D787, F126L/F129H/N285A/S124A). As to the kind of experiment: biochemical. Format: binding.
The target in the next test is iGABASnFR1 (Pseudomonas fluorescens, UniProt A0A1B3D787, F126L/N285A). Nature of the test: biochemical. Format: binding.
Chain of iGABASnFR1 (A0A1B3D787 27-341, stated change not applied): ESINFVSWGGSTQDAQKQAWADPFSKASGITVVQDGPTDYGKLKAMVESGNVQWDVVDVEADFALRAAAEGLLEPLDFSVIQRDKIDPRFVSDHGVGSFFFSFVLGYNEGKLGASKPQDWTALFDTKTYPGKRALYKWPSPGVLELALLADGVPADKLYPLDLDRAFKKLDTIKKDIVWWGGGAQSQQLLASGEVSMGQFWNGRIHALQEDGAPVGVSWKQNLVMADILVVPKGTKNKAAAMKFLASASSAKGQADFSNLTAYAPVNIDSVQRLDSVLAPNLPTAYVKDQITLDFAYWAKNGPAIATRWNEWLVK
Chain of iGABASnFR1 (P42212 with tags, fused parts or gaps S30R/Y39N/F64L/F99S/N105T/Y145W partner): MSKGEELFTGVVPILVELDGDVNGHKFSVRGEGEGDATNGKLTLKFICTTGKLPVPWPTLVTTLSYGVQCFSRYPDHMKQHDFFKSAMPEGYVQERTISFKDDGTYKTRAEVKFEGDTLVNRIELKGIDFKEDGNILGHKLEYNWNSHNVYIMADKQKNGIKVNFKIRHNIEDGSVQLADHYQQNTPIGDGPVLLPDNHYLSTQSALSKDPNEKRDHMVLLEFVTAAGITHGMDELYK

Chain of iGABASnFR2n (A0A1B3D787 27-341, stated change not applied): as the sequence (A0A1B3D787 27-341, stated change not applied) above
Chain of iGABASnFR2n (P42212 whole entry Y145W/R168P partner): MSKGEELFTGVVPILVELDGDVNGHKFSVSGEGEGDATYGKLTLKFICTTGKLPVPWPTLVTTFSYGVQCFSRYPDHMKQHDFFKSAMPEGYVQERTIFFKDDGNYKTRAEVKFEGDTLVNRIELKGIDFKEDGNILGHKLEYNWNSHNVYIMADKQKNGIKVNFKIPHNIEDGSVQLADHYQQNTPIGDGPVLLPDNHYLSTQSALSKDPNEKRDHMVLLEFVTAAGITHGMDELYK
Text for iGABASnFR1: (§1) The fluorescence data was fitted to the Hill function in GraphPad Prism to determine affinity values.
Text for iGABASnFR2n: as §1

Regarding `C[C@H](N)C(=O)O` [alanine], the pEC50 – broadly, the negative decadic logarithm of the EC50, by convention in mol/L – at iGABASnFR2n was 3.24; at iGABASnFR1, 2.77.

With `N=C(N)NCCC[C@H](N)C(=O)O` [arginine], the pEC50 is 5.47 at iGABASnFR2n and 4.23 at iGABASnFR1.

For `NC(=O)C[C@H](N)C(=O)O` [asparagine], the results for the pEC50 at iGABASnFR2n and on iGABASnFR1 were 2.26 and 2.07, respectively.

As for `N[C@@H](CC(=O)O)C(=O)O` [aspartate], the pEC50 is 6.28 at iGABASnFR2n and 5.62 on iGABASnFR1.

As to `NCC(CC(=O)O)c1ccc(Cl)cc1` (centres unmarked) [baclofen, reference compound], the pEC50 is 5.20 on iGABASnFR2n and 2.13 at iGABASnFR1.

`CN1CCc2cc3c(cc2[C@H]1[C@@H]1OC(=O)c2c1ccc1c2OCO1)OCO3` [bicuculline, reference compound]: at iGABASnFR2n, the pEC50 is 2.05.

Take `NCCc1c[nH]cn1` [histamine]: the negative-log EC50 (pEC50) at iGABASnFR2n was 2.05.

On to `CC[C@H](C)[C@H](N)C(=O)O` [isoleucine], for which the pEC50 at iGABASnFR2n was 3.95; on iGABASnFR1 it was 5.61.

Turning to `NCCCC[C@H](N)C(=O)O` [lysine], the pEC50 at iGABASnFR2n is 3.13; at iGABASnFR1, 4.11.

With `CSCC[C@H](N)C(=O)O` [methionine], the pEC50 on iGABASnFR2n was 2.05; at iGABASnFR1 it was 6.38.

Regarding `NCc1cc(=O)[nH]o1` [muscimol, reference compound], the pEC50 at iGABASnFR2n is 5.58; on iGABASnFR1 it was 5.24.

Regarding `N[C@@H](Cc1ccccc1)C(=O)O` [phenylalanine], the pEC50 on iGABASnFR2n is 2.94; at iGABASnFR1, 5.43.

In turn, `O=C(O)[C@@H]1CCCN1` [proline] gave a pEC50 on iGABASnFR2n of 2.60.

As for `N[C@@H](CO)C(=O)O` [serine], the negative-log EC50 (pEC50) is 2.26 on iGABASnFR2n and 4.29 at iGABASnFR1.

For `C[C@@H](O)[C@H](N)C(=O)O` [threonine], the results for the pEC50 at iGABASnFR2n and on iGABASnFR1 were 2.05 and 4.70, respectively.

As to `Cc1ccsc1C(=CCCN1CCC[C@@H](C(=O)O)C1)c1sccc1C` [tiagabine, reference compound], at iGABASnFR2n, the pEC50 is 2.65.

The molecule `N[C@@H](Cc1c[nH]c2ccccc12)C(=O)O` [tryptophan] showed a pEC50 at iGABASnFR2n of 6.40.

`CC(C)[C@H](N)C(=O)O` [valine]: the pEC50 at iGABASnFR2n is 5.83; at iGABASnFR1, 5.87.

Turning to `C=CC(N)CCC(=O)O` (centres unmarked) [vigabatrin, reference compound], at iGABASnFR1, the pEC50 was 2.27.
